Measurements reported in paper PMC5104425, “A Novel Selective Inhibitor of Delta-5 Desaturase Lowers Insulin Resistance and Reduces Body Weight in Diet-Induced Obese C57BL/6J Mice” (PLoS ONE, 2016).
Counter-ions that a name gives are not always drawn.

Experiments:
Type in all cases: in vivo, C57BL/6J mice
DIO mice [1] = test: Anti-obesity effects in DIO mice, 6-week treatment (HFD D12492): BW, calorie intake, observations; settings: sibutramine 30 mg/kg p.o.
Method: In this report, we performed 3 independent studies in DIO mice to characterize anti-obesity effects of our D5D specific inhibitor. Male C57BL/6J mice were obtained from Charles River Laboratories (Yokohama, Japan) or CLEA Japan (Osaka, Japan). The mice were fed a laboratory chow and water ad libitum and housed in a 12-h light/dark cycle. Compound or vehicle was administered once daily between 15: 00–19:00 by oral gavage. Body weight (BW) and food intake were monitored throughout the experiment.
(§1) Mice were fed a high-fat diet (HFD) that has 60% kcal from fat and contains 0.09% (w/w) AA (D12492; Research diets, Inc., see S1 Table for fatty acid profile) from 5 weeks of age, and they were divided into 5 groups (7 animals per group) at 11 weeks of age based on BW and daily food intake. In this experiment, 30 mg/kg sibutramine, a […], was used as a positive control for anti-obesity effects. Mice were orally administered compound-326 at doses of 0.1, 1, and 10 mg/kg, sibutramine at a dose of 30 mg/kg, or vehicle for 6 weeks. After 6 weeks, blood concentrations of DGLA and AA under non-fasting condition were evaluated as pharmacodynamics (PD) markers, and oral glucose tolerance test (OGTT) was performed.

DIO mice [2] = test: Oral glucose tolerance test and HOMA-IR after 6-week treatment in DIO mice; settings: sibutramine 30 mg/kg, 6 weeks
Method: as §1
On the last day of the experiment, mice were given an oral glucose load (2 g/kg) after overnight fasting. Blood samples were collected at specified time points of 0 (pre-glucose/fasting glucose levels), 10, 30, 60, and 120 min post glucose load for the determination of plasma glucose as well as insulin levels. Plasma glucose was enzymatically measured with auto-analyzer 7180 (Hitachi High-Technologies Corporation, Tokyo, Japan). Plasma insulin was measured with mouse insulin ELISA kit (Shibayagi, Gunma, Japan). The total area under the glucose curve was determined from time 0 to 120 min (AUC0–120 min) after glucose administration. Homeostasis model assessment-insulin […] (HOMA-IR) was calculated using the formula: [(fasted PG: mg/dL)×(fasted insulin; μU/mL)[…]/405] [28].

D5D = test: Blood fatty acids (PD markers AA, DGLA, EPA, DHA) after 6-week treatment in DIO mice; settings: sibutramine 30 mg/kg, 6 weeks
Method: Fatty acids were extracted from blood and tissues by adding hexane-isopropanol-butylated hydroxytoluene (60:40:0.01, v/v/w). Samples were vortexed for 30 min. The hexane phase was removed and evaporated to dryness under nitrogen stream and vacuum. Dried samples were dissolved in methanol and analyzed by HPLC.
as §1

CC(C)CC(N(C)C)C1(c2ccc(Cl)cc2)CCC1 (stereo not drawn) [sibutramine, Sibutramine hydrochloride monohydrate, reference compound]
BW (DIO mice [1]; 6 weeks, BW then increased in line with food intake): potent BW loss for a week | food intake (DIO mice [1]; from day 1, followed by a rebound): transient and potent decrease in food intake | HOMA-IR (DIO mice [2]): significantly improved | blood AA level (D5D): slightly but significantly decreased | blood AA to DGLA ratio (D5D): slightly but significantly decreased | blood DGLA level (D5D): slightly but significantly decreased
